In patent US9840464B2, “IAP binding compounds” (TetraLogic Birinapant UK Ltd., priority 2004, dated 2017) one finds Kd and EC50 data, which are given here for 15 compounds.

XIAP-BIR3, sequence (P98170 241-356 limits assumed): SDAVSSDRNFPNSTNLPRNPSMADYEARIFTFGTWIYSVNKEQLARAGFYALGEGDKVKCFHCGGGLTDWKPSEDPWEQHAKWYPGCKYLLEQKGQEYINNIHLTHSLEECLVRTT

One experiment has as its target XIAP-BIR3 (Homo sapiens, UniProt P98170). The experiment is described as follows: XIAP BIR3 fluorescence polarization binding assay (competition with AbuRPF-K(5-Fam)-NH2). The note with it: 5 nM AbuRPF-K(5-Fam)-NH2, 40 nM XIAP-BIR3, pH 7.5; Kd calculated from measured IC50; read-out: KD Range. As to the method: Binding constants (Kd) were measured using fluorescence polarization as described by Zaneta Nikolovska-Coleska, Renxiao Wang, Xueliang Fang, Hongguang Pan, York Tomita, Peng Li, Peter P. Roller, Krzysztof Krajewski, Naoyuki Saito, Jeanne Stuckey and Shaomeng Wang, in “Development and Optimization of a Binding Assay for the XIAP BIR3 Domain Using Fluorescence Polarization”, Analytical Biochemistry 2004, 332, 261-273). Briefly, test IAP binding compounds at various concentrations for binding measurements were mixed with 5 nM fluorescently labeled peptide (AbuRPF-K(5-Fam)-NH2) and 40 nM of XIAP-BIR3 for 15 minutes at room temperature in 100 μL of 0.1M Potassium Phosphate buffer, pH 7.5 containing 100 μg/ml bovine γ-globulin. Following incubation, the polarization values (mP) were measured on a Victor^2V using a 485 nm excitation filter and a 520 nm emission filter. IC50 values were determined from the plot using nonlinear least-squares analysis using GraphPad Prism. The Kd values of competitive inhibitors were calculated using the equation described by Zaneta Nikolovska-Coleska et al. based upon the measured IC50 values, the Kd value of the probe and XIAP BIR3 complex, and the concentrations of the protein and probe in the competition assay. In various examples of IAP binding or IAP binding cargo molecules ranges for Kd values: Group A: Kd<0.1 μM; Group B: Kd=0.1-1 μM; Group C: Kd=1-10 μM; Group D: Kd>10 μM.
As for `CNC(C)C(=O)NC(C(=O)N1CCCC1Cc1cn(CCOCCOCCOC)c2cc(F)ccc12)C1CCCCC1` (centres unmarked) [Entry 16-109, N-{1-Cyclohexyl-2-[2-(6-fluoro-1-{2-[2-(2-methoxy-ethoxy)-ethoxy]-ethyl}-1H-indol-3-ylmethyl)-pyrrolidin-1-yl]-2-oxo-ethyl}-2-methylamino-propionamide], the Kd was 100 to 1000 nM.
The same measure, in the same setting: next, `CC(C)[C@H](NC(=O)[C@H](C)N)C(=O)N1C[C@@H](Oc2ccccc2)C[C@H]1/C=C/COc1cccc(Cl)c1Cl` [Entry 3-10]: 100 to 1000 nM; `CN[C@@H](C)C(=O)N[C@H](C(=O)N1C[C@@H](Oc2ccccc2)C[C@H]1Cc1coc2ccccc12)C1CCCCC1` [Entry 5-43]: less than 100 nM.
With `CC(C)[C@H](NC(=O)[C@H](C)N)C(=O)N1C[C@@H](Oc2ccccc2)C[C@H]1/C=C/COc1ccccc1-c1ccccc1` [Entry 3-20], the Kd is 100 to 1000 nM.
The same measure, in the same setting: next, `CC[C@H](NC(=O)[C@H](C)N)C(=O)N1C[C@@H](Oc2ccccc2)C[C@H]1Cc1coc2ccccc12` [Entry 5-54]: less than 100 nM; `Cc1cccc(C)c1OC/C=C/[C@@H]1C[C@H](Oc2ccccc2)CN1C(=O)[C@@H](NC(=O)[C@H](C)N)C(C)C` [Entry 3-22]: less than 100 nM; `Cc1ccc(S(=O)(=O)n2cc(C[C@@H]3CCCN3C(=O)[C@@H](NC(=O)[C@H](C)N)C(C)C)c3ccccc32)cc1` [Entry 15-107, 2S-Amino-N-(2-methyl-1S-{2S-[1-(toluene-4-sulfonyl)-1H-indol-3-ylmethyl]-pyrrolidine-1-carbonyl}-propyl)-propionamide]: less than 100 nM.
On to `CC(NC(=O)OC(C)(C)C)C(=O)NC(C(=O)N1CCCC1Cc1cn(C(=O)OC(C)(C)C)c2ccccc12)C(C)C` (centres unmarked) [Entry 14-101], for which the Kd was more than 10000 nM.
Same read-out and setting: next, `CNC(C)C(=O)NC(C(=O)N1CCCC1Cc1c[nH]c2cc(F)ccc12)C1CCCCC1` (centres unmarked) [Entry 14-104]: 100 to 1000 nM; `CN[C@@H](C)C(=O)N[C@H](C(=O)N1C[C@@H](Oc2ccccc2)C[C@H]1Cc1coc2ccccc12)C(C)C` [Entry 5-45]: less than 100 nM.
The same measure, in the same setting: next, `CC(N)C(=O)NC(C(=O)N1CCCC1Cc1coc2ccc(OCC3CC3)cc12)C(C)C` (centres unmarked) [Entry 7-77]: more than 10000 nM; `CC(N)C(=O)NC(C(=O)N1CCCC1Cc1c(CCC(=O)O)oc2ccccc12)C(C)C` (centres unmarked) [Entry 10-90]: 100 to 1000 nM.
In the case of `CC[C@H](NC(=O)[C@@H](N)CC)C(=O)N1C[C@@H](Oc2ccccc2)C[C@H]1Cc1coc2ccccc12` [Entry 5-55], the Kd is 100 to 1000 nM.
For the compound `CC(C)[C@H](NC(=O)[C@H](C)N)C(=O)N1C[C@@H](Oc2ccccc2)C[C@H]1Cc1coc2ccccc12` [Entry 5-39], the Kd is less than 100 nM.
For `CNC(C)C(=O)NC(C(=O)N1CCCC1Cc1c(Br)n(CCOCCOCCOC)c2cc(F)ccc12)C(C)(C)C` (centres unmarked) [Entry 16-113], the Kd is less than 100 nM.

The next experiment has as its system SK-OV-3 cells. The experiment is described as follows: MTT cell growth/survival assay. In kind it is cell-based. The note with it: Homo sapiens, 72 hrs incubation, drug concentration that results in 50% cell survival. As for the experimental part:
The MTT assay is an example of an assay that has been used for measuring cell growth as previously described (Hansen, M. B., Nielsen, S. E., and Berg, K. J. Immunol. Methods 1989, 119, 203-210) and incorporated herein by reference in its entirety. Briefly, SK-OV-3 cells were seeded in 96-well plates in McCoy's medium containing 10% fetal bovine serum […] (20,000 per well) and incubated overnight at 37° C. Next day, test compounds were added at various concentrations typically from about 10 to about 0.0001 μM and the plates were incubated at 37° C. for an additional 72 hrs. This incubation time was optimal for measuring inhibitory effects of different analogs. 50 microliters of 5 mg/mL MTT reagent to each well was added and the plates were incubated at 37° C. for 3 hours. At the end of incubation period, 50 microliters of DMSO was added to each well to dissolve cells and the optical density (OD) of the wells was measured with a microplate reader (Victor^2 1420, Wallac, Finland) at 535 nm. Cell survival (CS) was calculated by the following equation: CS=(OD treated well/mean OD control wells)×100%
The EC50, defined as the drug concentration that results in 50% CS, was derived by calculating the point where the dose-response curve crosses the 50% CS point using GraphPad Prism.
Consider `CNC(C)C(=O)NC(C(=O)N1CCCC1Cc1cn(CCOCCOCCOC)c2cc(F)ccc12)C1CCCCC1` (centres unmarked) [Entry 16-109, N-{1-Cyclohexyl-2-[2-(6-fluoro-1-{2-[2-(2-methoxy-ethoxy)-ethoxy]-ethyl}-1H-indol-3-ylmethyl)-pyrrolidin-1-yl]-2-oxo-ethyl}-2-methylamino-propionamide], for which the response was half-maximal at 0.06 ± 0.026 µM (EC50).
The compound `CNC(C)C(=O)NC(C(=O)N1CCCC1Cc1c[nH]c2cc(F)ccc12)C1CCCCC1` (centres unmarked) [Entry 14-104] displayed an EC50 of 0.515 ± 0.093 µM.
